How the values were obtained:
[1] = Test on the solubility in a simulated body fluid; assay type: physicochemical; details: 0.01 M PBS pH 7.4, 37° C.
Description: Test on the Solubility in a Simulated Body Fluid
The concentration of the drug dissolved in the PBS buffered solution was determined with an HPLC-a method.

[2] = Test on the solubility in media at different pH; assay type: physicochemical
Description: Test on the Solubility in Media at Different pH
About 200 mg of solid powders of Preparation Example 10 and Preparation Example 15 were added in a 500 mL phosphate buffered solution at different pH values (50 mmol/L, pH 5.5, pH 6.5, pH 7.4, and pH 8.0) respectively, placed into a dissolution tester, kept at a constant temperature of 37° C., and paddle stirred at 50 rpm for 72 hours. Appropriate amounts of the suspension were taken out at 15 min, 30 min, 45 min, 1 h, 2 h, 4 h, 6 h, 8 h, 24 h, 32 h, 48 h, and 72 h respectively, and centrifuged immediately (15000 rpm, 5 min). The supernatant was diluted with methanol by a factor of two. The concentration of the drug dissolved in the PB buffer solution was determined with an HPLC-b method.

[3] = phosphate buffer pH 5.5, 37° C., 0.25 h
[4] = phosphate buffer pH 5.5, 37° C., 0.5 h
[5] = phosphate buffer pH 5.5, 37° C., 0.75 h
[6] = phosphate buffer pH 5.5, 37° C., 1 h
[7] = phosphate buffer pH 5.5, 37° C., 2 h
[8] = phosphate buffer pH 5.5, 37° C., 4 h
[9] = phosphate buffer pH 5.5, 37° C., 6 h
[10] = phosphate buffer pH 5.5, 37° C., 8 h
[11] = phosphate buffer pH 5.5, 37° C., 24 h
[12] = phosphate buffer pH 5.5, 37° C., 32 h
[13] = phosphate buffer pH 5.5, 37° C., 48 h
[14] = phosphate buffer pH 5.5, 37° C., 72 h
[15] = phosphate buffer pH 6.5, 37° C., 0.25 h
[16] = phosphate buffer pH 6.5, 37° C., 0.5 h
[17] = phosphate buffer pH 6.5, 37° C., 0.75 h
[18] = phosphate buffer pH 6.5, 37° C., 1 h
[19] = phosphate buffer pH 6.5, 37° C., 2 h
[20] = phosphate buffer pH 6.5, 37° C., 4 h
[21] = phosphate buffer pH 6.5, 37° C., 6 h
[22] = phosphate buffer pH 6.5, 37° C., 8 h

## CCCCN1CCCCC1C(=O)Nc1c(C)cccc1C.O=C(O)c1cc2ccccc2c(Cc2c(O)c(C(=O)O)cc3ccccc23)c1O [Preparation Example 10, mono(bupivacaine) pamoate]
[1]; 5 min
  Compound concentration: Bupivacaine: 0.7220 mM
  Compound concentration: Pamoic acid: 0.7427 mM
[1]; 15 min
  Compound concentration: Bupivacaine: 0.8330 mM
  Compound concentration: Pamoic acid: 0.8579 mM
[1]; 30 min
  Compound concentration: Bupivacaine: 0.8859 mM
  Compound concentration: Pamoic acid: 0.9168 mM
[1]; 1 h
  Compound concentration: Bupivacaine: 0.9387 mM
  Compound concentration: Pamoic acid: 0.9816 mM
[1]; 2 h
  Compound concentration: Bupivacaine: 0.9097 mM
  Compound concentration: Pamoic acid: 0.9957 mM
[1]; 6 h
  Compound concentration: Bupivacaine: 0.0833 mM
  Compound concentration: Pamoic acid: 1.8673 mM
[1]; 24 h
  Compound concentration: Bupivacaine: 0.0670 mM
  Compound concentration: Pamoic acid: 2.5605 mM
[2]; media at pH 5.5, pH 7.4 and pH 8.0, remained for 48 hours or less
  molar ratio of the solubility (bupivacaine to pamoic acid): around 1.0
[2]; medium at pH 6.5, decreased after a longer time
  time for which the molar ratio of the solubility remained around 1.0: 8 h
[2]; [3]
  Molar concentration of Bupivacaine: 0.047 mmol/L
  Molar concentration of Pamoic acid: 0.046 mmol/L
[2]; [4]
  Molar concentration of Bupivacaine: 0.078 mmol/L
  Molar concentration of Pamoic acid: 0.076 mmol/L
[2]; [5]
  Molar concentration of Bupivacaine: 0.106 mmol/L
  Molar concentration of Pamoic acid: 0.103 mmol/L
[2]; [6]
  Molar concentration of Bupivacaine: 0.136 mmol/L
  Molar concentration of Pamoic acid: 0.132 mmol/L
[2]; [7]
  Molar concentration of Bupivacaine: 0.188 mmol/L
  Molar concentration of Pamoic acid: 0.182 mmol/L
[2]; [8]
  Molar concentration of Bupivacaine: 0.222 mmol/L
  Molar concentration of Pamoic acid: 0.218 mmol/L
[2]; [9]
  Molar concentration of Bupivacaine: 0.234 mmol/L
  Molar concentration of Pamoic acid: 0.232 mmol/L
[2]; [10]
  Molar concentration of Bupivacaine: 0.234 mmol/L
  Molar concentration of Pamoic acid: 0.23 mmol/L
[2]; [11]
  Molar concentration of Bupivacaine: 0.246 mmol/L
  Molar concentration of Pamoic acid: 0.244 mmol/L
[2]; [12]
  Molar concentration of Bupivacaine: 0.248 mmol/L
  Molar concentration of Pamoic acid: 0.248 mmol/L
[2]; [13]
  Molar concentration of Bupivacaine: 0.198 mmol/L
  Molar concentration of Pamoic acid: 0.236 mmol/L
[2]; [14]
  Molar concentration of Bupivacaine: 0.142 mmol/L
  Molar concentration of Pamoic acid: 0.224 mmol/L
[2]; [15]
  Molar concentration of Bupivacaine: 0.05 mmol/L
  Molar concentration of Pamoic acid: 0.053 mmol/L
[2]; [16]
  Molar concentration of Bupivacaine: 0.084 mmol/L
  Molar concentration of Pamoic acid: 0.09 mmol/L
[2]; [17]
  Molar concentration of Bupivacaine: 0.115 mmol/L
  Molar concentration of Pamoic acid: 0.124 mmol/L
[2]; [18]
  Molar concentration of Bupivacaine: 0.148 mmol/L
  Molar concentration of Pamoic acid: 0.160 mmol/L
[2]; [19]
  Molar concentration of Bupivacaine: 0.274 mmol/L
  Molar concentration of Pamoic acid: 0.296 mmol/L
[2]; [20]
  Molar concentration of Bupivacaine: 0.384 mmol/L
  Molar concentration of Pamoic acid: 0.414 mmol/L
[2]; [21]
  Molar concentration of Bupivacaine: 0.396 mmol/L
  Molar concentration of Pamoic acid: 0.424 mmol/L
[2]; [22]
  Molar concentration of Bupivacaine: 0.404 mmol/L
  Molar concentration of Pamoic acid: 0.448 mmol/L

— patent publication US11084790B2, “Insoluble complex or solvate thereof, pharmaceutical composition and use thereof” (Fruithy Holdings Limited, priority 2017, dated 2021)
